In patent publication US12564206B2, “Multi-supplement food-additive” (THE GOVERNING COUNCIL OF THE UNIVERSITY OF TORONTO, priority 2019, dated 2026):
Read-outs that look alike come from different tables or passages of the source.

How the values were obtained:
[1] = Stability of spray solutions on storage; details: for retained in spray solution: after 2 months of storage
Experimental: Formulation and Storage of Spray Solution: Seven sets of spray solutions were formulated, containing folic acid, vitamin B12, iodine, sodium ascorbate, sodium citrate and/or sodium carbonate, as described in Table 1. The stability of the solutions was monitored for 2 months at 25, 35, and 45 degrees C.
(§1) Folic Acid Analysis: For the spray solution, samples were diluted with 0.1 M Na2CO3 at ratio 1:1000 v/v and the absorbance of the resulting solution was read at 285 nm. For the salt samples, 5 g aliquots were dissolved in 0.1 M Na2CO3 (10 mL) in a falcon tube. The solution was mixed on a vortex mixer for 2 minutes and filtered with a 0.45 μm syringe filter. The absorbance of the filtrate was immediately read at 285 nm.
(§2) Iodine Analysis: Method 33.149, described by the Association of Official Analytical Chemists (AOAC), was used for iodine quantification in salt and spray solutions (Association of Official Analytical Chemists, 1984). In this method, iodate is reduced to iodine and titrated with sodium thiosulfate using a starch indicator.
Vitamin B12 Analysis: The iron-B12 premix was pulverized with a mortar and pestle. The pulverized premix (5 g) was weighed into 50 mL falcon tube, and 10 mL of RO water was added and mixed with a vortex mixer for 2 minutes. This was centrifuged for 2 minutes. The supernatant was filtered with a 0.45 micron filter. Vitamin B12 in the filtrate was quantified using UHPLC-MS.

[2] = Stability of folic acid and iodine in fortified salt on storage; details: for micronutrient retained in quadruple fortified salt: 6 months storage at 25, 35 and 45 degrees C, 60-70% RH, all cases
Experimental: However, for comparative study, a solution containing folic acid, iodine and vitamin B12 (spray solution 2 in Table 1) was also used. The solutions (2.5 mL) were sprayed on salt (1 kg) inside a ribbon blender and thoroughly mixed for 20 minutes. The salt samples were dried overnight. The dried salt was returned to the ribbon blender and mixed with premix samples for 2 minutes. Iron premix (i.e. particles containing iron without any B12 or other fortificants) and three of the four iron-B12 premixes were used (adding B12 to TiO2 was not further tested). The target concentrations of the fortificants were 1000 microgram/gram iron, 50 microgram/gram iodine, 25 microgram/gram folic acid and 0.25 microgram/gram vitamin B12.
The fortified salts were divided by solid sample splitter glassware into three portions. Each portion was stored at ambient conditions (25 degrees C.), 35 degrees C. and 60-70% RH, and 45 degrees C. and 60-70% RH. The stability of folic acid and iodine in the salt was monitored over a period of six months.
as §1, §2

[3] = Accelerated kinetic study of folic acid and iodine degradation in spray solution; format: physicochemical; details: for degradation constant in spray solution: first order; for activation energy for degradation in the solution: Arrhenius plot
Experimental: An accelerated kinetic study was conducted to evaluate the stability of the micronutrients in the premixes and solution. The stability of folic acid and iodine in the spray solution was evaluated, and the stability of B12 in the various premixes was evaluated. The solution and premix were stored at 50, 60, 70 and 80 degrees C. for 7 days. For the solution, samples (250 mL) were stored in 400 mL Fisherbrand Glass Bottles. About 1 mL of the samples were collected from the bottles at days 1, 3, 5 and 7, and stored at −20 degrees C. before analysis. For the premix, 1 g was weighed into aluminium weighing dishes. At days 1, 3, 5 and 7, samples were pulverized in a mortar and pestle. Vitamin B12 was extracted with 0.1 M Na2CO3. The crude extract was filtered (0.45 um) and stored at −20 degrees C. before analysis.

[4] = Earlier double fortified salt, storage stability; format: physicochemical; details: 5 month period, ambient conditions
Source text: Applicant has previously attempted to develop folic acid and iodine spray solutions to investigate the stability of triple fortified salt containing iodine, folic acid and microencapsulated ferrous fumarate.

[5] = L*a*b* colour analysis of salt sprayed with folic acid; format: physicochemical
Experimental: While this example was successful, it was observed that the addition of folic acid by spraying can impact the colour of the salt (i.e. a yellow color is observed), which may impact the acceptance of the salt. Accordingly, the inclusion of the folic acid in the premix was evaluated. […] The two other premix samples contained an iron micronutrient, folic acid, and vitamin B12; in one of these two, all of the micronutrients were in the core of the premix, while in the other, folic acid was separated from the iron micronutrient and vitamin B12 by a layer of TiO2.

[6] = 30 min, 2 mg/mL
Experimental: The effect of boiling on the stability of folic acid and vitamin B12 was assessed, in order to mimic food preparation. A known amount of folic acid (0.5 g) was weighed into 250 ml of boiling water. Boiling was continued for 30 minutes. At 1, 5, 10, 15, 20, 25, and 30 minutes, the solution was made up to 250 ml, and then 1 ml of the solution was measured out into a centrifuge vial. The same procedure was followed for B12.

[7] = cited from earlier work
[8] = Stability of vitamin B12 in iron-B12 premix on storage; format: physicochemical; details: room temperature, six months; premix made by three approaches (core, spray, HPMC)
Source text: Production of Iron-B12 Premix: Given the instability of vitamin B12 in the spray solutions (as described below with respect to FIG. 4), vitamin B12 was removed from the spray solutions and incorporated into separate particles with the iron micronutrient, as a multi-supplement food-additive, described above (also referred to herein as an ‘iron-B12 premix’). For the iron-B12 premix, 25% TiO2 was used for color masking, and 5% HPMC and 5% soy stearin as the encapsulating coating. […] The stability of vitamin B12 in each iron-B12 premix was evaluated for six months.
This was centrifuged for 2 minutes.

[9] = 12.5 microgram/gram folic acid in salt
[10] = 25 microgram/gram folic acid in salt

Row | Compound | retained in spray solution [1] | micronutrient retained in quadruple fortified salt [2] | degradation constant in spray solution ([3]; 60 degrees C) | degradation constant in spray solution ([3]; 70 degrees C) | degradation constant in spray solution ([3]; 80 degrees C) | activation energy for degradation in the solution [3] | micronutrient retained in double fortified salt [4] | stability in solution [1] | solubility in water [7] | other results
1 | II [iodine, potassium iodate] | about 90% | 85-100% | 0.0337 day⁻¹ | 0.0432 day⁻¹ | 0.0568 day⁻¹ | 6.092 kcal/mol | 100% |  |  | stability in solution ([1]; the spray solutions (FIG. 4)): very stable; improvement of iodine stability with vitamin B12 in core vs other parts of the premix ([2]; QFS, 45 degrees C, six months): 6-15%
2 | Nc1nc2ncc(CNc3ccc(C(=O)N[C@@H](CCC(=O)O)C(=O)O)cc3)nc2c(=O)[nH]1 [folic acid] | ~80% | 74-97% | 0.0349 day⁻¹ | 0.0411 day⁻¹ | 0.0531 day⁻¹ | 4.924 kcal/mol | 100% | very stable | sparingly soluble | improvement of folic acid stability with vitamin B12 in core vs other parts of the premix ([2]; QFS, six months, all temperatures): 11-15%; L* of salt [5, 9]: 95.43; a* of salt [5, 9]: −1.53; b* of salt [5, 9]: 8.44; L* of salt [5, 10]: 94.27; a* of salt [5, 10]: −2.92; b* of salt [5, 10]: 13.50; retained after boiling [6]: About 93%
3 | vitamin B12 |  |  |  |  |  |  |  | very stable | very soluble | vitamin B12 lost in spray solution ([1]; spray solution at lower pH (8), 2 months storage): > 50%; vitamin B12 lost in spray solution ([1]; spray solution pH 9, 2 months storage at 45 degrees C and 70% RH): ~100%; B12 retained in iron-B12 premix [8]: over 97%
